In patent US8207142B2, “Inhibitor of DNA methylation” (priority 2001, dated 2012):

Columns and labels:
T24 cells = assay: Zebularine metabolites in T24 cells (SAX-10 HPLC); type: in vitro ADME, human; conditions: 6 hr incubation
Experimental: ZB, ZB-MP, ZB-DP and ZB-TP correspond, respectively, to Zebularine, 5′-mono, 5′-di- and 5′-triphosphate metabolites. There are two unidentified metabolites, indicated by the symbols ?1 and ?2.
Zebularine metabolites were identified after incubation of human bladder cancer cells (T24) in DMEM+10% FCS medium with antibiotics. Zebularine (10 μM, 1 μCi), specific activity 200 DPM/pmole was used in these experiments. At the end of the incubation, cells were extracted with 60% methanol and aliquots were analyzed by SAX-10 HPLC using a methanolwater gradient as follows: 1-5 min 1% MeOH, 5-25 min gradient to 25% MeOH, 25-35 min isocratic with 25% MeOH and back to 1% MeOH after 10 min. The phosphorylated metabolites were identified by comparison with authentic synthetic standards. Using this methodology formation of metabolites as a function of concentration after a 6 hr incubation period was investigated (FIG. 17). The major metabolite formed was the 5′-triphosphate.

DNMT1 = molecular target: T1, DNMT1 (Homo sapiens, UniProt P26358); assay: Western blot of DNMT1 level in treated T24 cells; type: cell-based; conditions: 500 μM for 48 h
T1 construct: protein extracts were isolated from both treated and untreated T24; endogenous in cells; host or cells: T24 human bladder carcinoma cells (ATCC)
Experimental: The mRNA for DNMT3b3 is the only 3b transcript expressed in T24 cells, and DNMT3a levels could not be assessed because no suitable antibodies against DNMT3a are available. Thus, with reference to FIG. 12, protein extracts were isolated from both treated and untreated T24 (population 3 million cells, treated with 500 μM Zebularine for 48 h), and […] with specific antibodies for DNMT1 and DNMT3b3 as shown in FIG. 12. β-actin was included as a loading control, and the molecular weights of each protein are indicated.

[1] = system: DNA methylation of the am^RIP and ψ63 sequences; assay: Southern blot analysis of DNA methylation in N. crassa (Dpn II vs Sau3AI digests); type: cell-based, Neurospora crassa; conditions: 12 and 24 μM 5-AC; 0.33 and 3.3 μM TSA; 20, 39, 78, 160 and 310 μM Zebularine
Experimental: DNA was digested with Dpn II (D) or Sau3AI (S), fractionated by gel electrophoresis, transferred to a membrane and probed for am (FIG. 4A) or ψ63 (FIG. 4B) sequences. Dpn II and Sau3AI both recognize the sequence GATC, but Sau3AI fails to cleave if the C residue is methylated. Thus, differences between S and D lanes are indicative of DNA methylation.
The ramp symbols at the top of the figure represent increasing concentrations of drug. Drug concentrations were 12 and 24 μM 5-AC; 0.33 and 3.3 μM TSA; and 20, 39, 78, 160 and 310 μM Zebularine. The positions of selected size standards (kb) are indicated.
Southern hybridizations were performed on DNA samples (−1 μg) isolated from liquid cultures inoculated with 7×10^4 conidia/ml. DNA was digested with Dpn II (D) or Sau3AI (S), fractionated by gel electrophoresis, transferred to a nylon membrane and probed for am^RIP (FIG. 4A) or ψ63 (FIG. 4B) sequences. The restriction endonucleases Dpn II and-Sau3AI both recognize the sequence GATC, but Sau3AI fails to cleave if the C residue is methylated. Drug concentrations were […] 5-AC, 0.33 and 3.3 μM TSA, and […] Zebularine.
The positions of selected size standards (kb) and the origin (ori) are indicated. […] Differences between S and D lanes are indicative of DNA methylation.

EJ6 tumors = EJ6 tumors in BALB/c nu/nu mice, tumor volume and histology; type: in vivo
Experimental: EJ6 cells (5×10^5/injection) were inoculated subcutaneously into the right and left flanks of male BALB/c nu/nu mice at 4-6 weeks of age (available from Harlan, San Diego, Calif.). Zebularine treatments were initiated after macroscopic (50-200 mm 3) tumor formation (4-6 weeks later). Zebularine (500 mg/kg or 1000 mg/kg) was administered daily via intraperitoneal injection or oral gauage feeding over a period of 18 days. Control mice received 0.45% saline administered via intraperitoneal injection or oral gavage feeding over a period of 18 days. Mice (n=30) were divided into five groups (control group, 500 mg/kg intraperitoneal injection, 500 mg/kg oral, 1000 mg/kg intraperitoneal injection, and 1000 mg/kg oral). Each treatment group consisted of a minimum of five animals (at least 6 tumors per group).
Tumor volumes (TV) were measured with calipers and calculated using the following formula: tumor volume=LD^2/2 (where L is the longest diameter and D is the shortest diameter). The relative tumor volume (RTV) was calculated as: RTV=TVn/TVo, where TVn is the calculated volume at day n. Animals were sacrificed 24 hours after the last treatment. Tumors were removed, immediately fixed with neutral buffered formalin and then embedded in OCT compound for frozen sections. The frozen sections were processed and stained with hematoxylin and eosin (H&E). All histological examinations were carried out by light microscopy using a Leica DM LB microscope (Leica Microsystems, Germany).

[2] = system: p16 promoter and p16 exon 2; assay: Continuous long-term treatment of T24 cells, methylation of p16 promoter and p16 exon 2; type: cell-based, human; conditions: 100 μM continuous treatment, Day 14, T24 cells; dropped from ˜96%
N. crassa = type: cell-based; conditions: Neurospora crassa, 400 nmoles
Experimental: Strains with mutations in dim-2 lack all detectable methyltransferase activity. A dim-2 strain (N613) and a wild-type control (N242) were challenged with a high concentration of Zebularine. The concentration of Zebularine is indicated above the plates and was applied to the paper disc as in FIG. 5; no hygromycin was applied to these plates.
Plate tests were performed with solidified medium essentially as previously described (Selker, Proc. Natl. Acad. Sci. USA 95;9430-9435, 1998). In brief, approximately 2,000 N. crassa conidia of the indicated were plated on each plate. Drugs were administered from a 4-mm diameter Whatman™ no. 1 paper disk placed in the middle of each plate shortly after plating.
Strains with mutations in dim-2 lack all detectable methyltransferase activity (Kouzminova and Selker, “Dim-2 encodes a DNA-methyltransferase responsible for all known cytosine methylation in Neurospora,” EMBO J. Aug. 1, 2001). In order to examine whether Zebularine toxicity is mediated by its methyltransferase-inhibitory activity, dim-2 strain (N613) and a wild-type control (N242) were challenged with a high concentration (400 nmoles) of Zebularine. No hygromycin was applied to these plates.

[3] = Toxicity (Table 1 summary of characteristics)

T1 sequence (P26358 whole entry): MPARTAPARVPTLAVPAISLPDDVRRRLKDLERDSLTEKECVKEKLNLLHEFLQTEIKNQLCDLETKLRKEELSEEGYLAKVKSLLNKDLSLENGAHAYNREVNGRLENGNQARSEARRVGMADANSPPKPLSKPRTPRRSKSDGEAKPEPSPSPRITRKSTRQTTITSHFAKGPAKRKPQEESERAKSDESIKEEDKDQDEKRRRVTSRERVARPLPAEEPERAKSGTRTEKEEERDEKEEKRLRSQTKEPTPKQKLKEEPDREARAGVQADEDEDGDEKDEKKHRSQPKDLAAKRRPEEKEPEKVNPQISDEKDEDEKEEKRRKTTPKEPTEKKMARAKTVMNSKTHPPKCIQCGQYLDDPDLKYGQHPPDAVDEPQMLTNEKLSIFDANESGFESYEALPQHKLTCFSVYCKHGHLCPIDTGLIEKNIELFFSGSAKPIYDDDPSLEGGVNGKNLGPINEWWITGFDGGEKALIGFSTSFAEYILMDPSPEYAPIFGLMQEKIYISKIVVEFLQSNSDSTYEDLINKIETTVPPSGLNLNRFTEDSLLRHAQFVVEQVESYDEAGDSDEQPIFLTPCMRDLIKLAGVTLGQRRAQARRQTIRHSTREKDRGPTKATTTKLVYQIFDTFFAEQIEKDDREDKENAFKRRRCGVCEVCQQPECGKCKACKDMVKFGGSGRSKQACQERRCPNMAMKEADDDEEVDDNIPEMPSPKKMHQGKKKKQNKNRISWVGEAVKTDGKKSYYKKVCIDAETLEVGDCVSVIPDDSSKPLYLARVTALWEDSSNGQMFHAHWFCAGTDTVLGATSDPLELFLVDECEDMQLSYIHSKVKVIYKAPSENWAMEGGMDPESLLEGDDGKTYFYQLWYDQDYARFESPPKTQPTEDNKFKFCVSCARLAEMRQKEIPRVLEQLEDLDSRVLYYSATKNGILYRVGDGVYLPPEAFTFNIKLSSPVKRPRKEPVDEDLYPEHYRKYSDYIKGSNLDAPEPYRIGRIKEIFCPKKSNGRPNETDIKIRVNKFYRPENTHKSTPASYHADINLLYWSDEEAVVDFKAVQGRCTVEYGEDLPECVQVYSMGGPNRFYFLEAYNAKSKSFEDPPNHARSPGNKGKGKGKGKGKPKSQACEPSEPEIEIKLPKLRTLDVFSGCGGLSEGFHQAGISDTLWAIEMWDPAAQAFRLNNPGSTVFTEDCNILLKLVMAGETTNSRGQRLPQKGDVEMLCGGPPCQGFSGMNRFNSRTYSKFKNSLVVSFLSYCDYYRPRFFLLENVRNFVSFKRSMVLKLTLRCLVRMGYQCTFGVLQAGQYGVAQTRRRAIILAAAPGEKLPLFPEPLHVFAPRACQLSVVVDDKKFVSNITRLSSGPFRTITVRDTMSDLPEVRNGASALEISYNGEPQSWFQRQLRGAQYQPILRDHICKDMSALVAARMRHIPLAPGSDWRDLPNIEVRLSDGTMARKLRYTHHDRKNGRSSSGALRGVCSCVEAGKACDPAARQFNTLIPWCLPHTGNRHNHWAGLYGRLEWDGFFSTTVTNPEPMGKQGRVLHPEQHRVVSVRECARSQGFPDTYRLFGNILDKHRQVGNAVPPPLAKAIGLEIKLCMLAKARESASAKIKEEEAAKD

Row | SMILES | major metabolite formed (T24 cells) | level of DNMT1 (DNMT1) | effect on DNA methylation (Southern blot) [1] | tumor regression (EJ6 tumors; 1000 mg/kg orally or intraperitoneally, daily, 18 days) | tumor growth (relative tumor volume) vs control group (EJ6 tumors; all treated groups: 500 or 1000 mg/kg daily, intraperitoneal or oral, 18 days) | ratio of tumor cells to stroma (H&E stained tumor sections), treated versus untreated (EJ6 tumors; tumors removed 24 hours after the last treatment) | methylation level at maximum demethylation [2] [%] | region of conidia toxicity around the filter disk, dim-2 vs wild type (N. crassa) | Toxicity [3]
1 | O=c1ncccn1[C@@H]1O[C@H](CO)[C@@H](O)[C@H]1O [Zebularine, 1-β-ribofuranosyl-1,2-dihydropyrimidin-2-one] | 5′-triphosphate | significant reduction | inhibits DNA methylation globally | tumor regression was observed | tumor growth appeared suppressed | lower ratio of tumor cells to stroma | ~47 | roughly equivalent in both dim-2 and wildtype strains | 
2 | Nc1ncn([C@@H]2O[C@H](CO)[C@@H](O)[C@H]2O)c(=O)n1 [5-Aza-CR, 5-azacytidine, reference compound] |  |  | inhibits DNA methylation globally |  |  |  |  |  | High
